# According to patent publication US20240158348A1, “HERBICIDAL CYCLIC AMIDES N-SUBSTITUTED WITH A HALOALKYLSULFONYLANILIDE GROUP” (FMC Corporation, priority 2021, published 2024):
# What was measured:
# [1] = tested on: ragweed (common ragweed, Ambrosia artemisiifolia); assay: Test A postemergence, ragweed; format: in vivo; conditions: post-emergence, 240 h, 0 to 100 scale, 10 days, read-out: Plant response rating, Ragweed; for pest or weed control at 31 g/ha: 31 g ai/ha; for pest or weed control at 125 g/ha: 125 g ai/ha
# Text: (§1) Seeds of plant species selected from barnyardgrass (Echinochloa crus-galli), blackgrass (Alopecurus myosuroides), corn (Zea mays), foxtail, giant (giant foxtail, Setaria faberi), goosegrass (Eleusine indica), kochia (Bassia scoparia), oat, wild (wild oat, Avena fatua), pigweed, palmer (palmer amaranth, Amaranthus palmeri), pigweed, redroot (redroot pigweed, Amaranthus retroflexus), ragweed (common ragweed, Ambrosia artemisiifolia), ryegrass, Italian (Italian ryegrass, Lolium multiflorum), soybean (Glycine max), and wheat (Triticum aestivum) were planted into a blend of loam soil and sand and treated preemergence with a directed soil spray using test chemicals formulated in a non-phytotoxic solvent mixture which included a surfactant.
# (§2) At the same time, plants selected from these crop and weed species and also galium (catchweed bedstraw, Galium aparine) and horseweed (Erigeron canadensis) were planted in pots containing the same blend of loam soil and sand and treated with postemergence applications of test chemicals formulated in the same manner. Plants ranged in height from 2 to 10 cm and were in the one- to two-leaf stage for the postemergence treatment. Treated plants and untreated controls were maintained in a greenhouse for 10 days, after which time all treated plants were compared to untreated controls and visually evaluated for injury. Plant response ratings, summarized in Table A, are based on a 0 to 100 scale where 0 is no effect and 100 is complete control. A dash (-) response means no test result.
# [2] = tested on: sedge, umbrella (small-flower umbrella sedge, Cyperus difformis); assay: Test B flooded paddy test, umbrella sedge; format: in vivo; conditions: 250 g ai/ha, Flood, scale of 0 to 100 where 0 is no effect and 100 is complete control, visually evaluated after 10 to 14 days, read-out: Plant response rating, Sedge, Umbrella
# Method: Plant species in the flooded paddy test selected from barnyardgrass (Echinochloa crusgalli), ducksalad (Heteranthera limosa), rice (Oryza sativa), and sedge, umbrella (small-flower umbrella sedge, Cyperus difformis) were grown to the 2-leaf stage for testing. At time of treatment, test pots were flooded to 3 cm above the soil surface, treated by application of test compounds directly to the paddy water, and then maintained at that water depth for the duration of the test. Treated plants and controls were maintained in a greenhouse for 10 to 14 days, after which time all species were compared to controls and visually evaluated. Plant response ratings, summarized in Table B, are based on a scale of 0 to 100 where 0 is no effect and 100 is complete control. A dash (-) response means no test result.
# [3] = tested on: wheat (Triticum aestivum); assay: Test A postemergence, wheat; format: in vivo; conditions: post-emergence, 240 h, 0 to 100 scale, 10 days, read-out: Plant response rating, Wheat; for plant injury at 31 g/ha: 31 g ai/ha; for plant injury at 125 g/ha: 125 g ai/ha
# Text: as §1, §2
# kochia (Bassia scoparia) = assay: Test A preemergence, kochia; format: in vivo; conditions: pre-emergence, 240 h, 0 to 100 scale, 10 days, read-out: Plant response rating, Kochia; for pest or weed control at 31 g/ha: 31 g ai/ha; for pest or weed control at 125 g/ha: 125 g ai/ha
# Text: as §1, §2
# [4] = tested on: galium (catchweed bedstraw, Galium aparine); assay: Test A postemergence, galium; format: in vivo; conditions: post-emergence, 240 h, 0 to 100 scale, 10 days, read-out: Plant response rating, Galium; for pest or weed control at 31 g/ha: 31 g ai/ha; for pest or weed control at 125 g/ha: 125 g ai/ha
# Text: as §1, §2
# [5] = tested on: pigweed, palmer (palmer amaranth, Amaranthus palmeri); assay: Test A postemergence, palmer amaranth; format: in vivo; conditions: 0 to 100 scale, 10 days
# Text: as §1, §2
# corn (Zea mays) = assay: Test A preemergence, corn; format: in vivo; conditions: 0 to 100 scale, 10 days
# Text: as §1, §2
# soybean (Glycine max) [6] = assay: Test A preemergence, soybean; format: in vivo; conditions: 0 to 100 scale, 10 days
# Text: as §1, §2
# [7] = tested on: goosegrass (Eleusine indica); assay: Test A postemergence, goosegrass; format: in vivo; conditions: 0 to 100 scale, 10 days
# Text: as §1, §2
# soybean (Glycine max) [8] = assay: Test A postemergence, soybean; format: in vivo; conditions: 0 to 100 scale, 10 days
# Text: as §1, §2
Structure (SMILES),melting point [°C],pest or weed control at 31 g/ha [1] [%],pest or weed control at 125 g/ha [1] [%],pest or weed control at 250 g/ha [2] [%],plant injury at 31 g/ha [3] [%],plant injury at 125 g/ha [3] [%],pest or weed control at 31 g/ha (kochia (Bassia scoparia)) [%],pest or weed control at 125 g/ha (kochia (Bassia scoparia)) [%],pest or weed control at 31 g/ha [4] [%],pest or weed control at 125 g/ha [4] [%],"Plant response rating, Pigweed, Palmer ([5]; 31 g ai/ha)","Plant response rating, Pigweed, Palmer ([5]; 125 g ai/ha)","Plant response rating, Corn (corn (Zea mays); 31 g ai/ha)","Plant response rating, Corn (corn (Zea mays); 125 g ai/ha)","Plant response rating, Soybean (soybean (Glycine max) [6]; 31 g ai/ha)","Plant response rating, Soybean (soybean (Glycine max) [6]; 125 g ai/ha)","Plant response rating, Goosegrass ([7]; 31 g ai/ha)","Plant response rating, Goosegrass ([7]; 125 g ai/ha)","Plant response rating, Soybean (soybean (Glycine max) [8]; 31 g ai/ha)","Plant response rating, Soybean (soybean (Glycine max) [8]; 125 g ai/ha)"
"C#CCOC1CCN(c2cc(NS(=O)(=O)C(F)(F)F)c(C)cc2C)C1=O (stereo not drawn) [Compound 1, N-[2,4-dimethyl-5-[2-oxo-3-(2-propyn-1-yloxy)-1-pyrrolidinyl]phenyl]-1,1,1-trifluoromethanesulfonamide]",164 to 167,60,80,90,60,70,70,100,80,100,,,,,,,,,,
"C=CCOC1CCN(c2cc(NS(=O)(=O)C(F)(F)F)c(C)cc2C)C1=O (stereo not drawn) [Compound 2, N-[2,4-dimethyl-5-[2-oxo-3-(2-propen-1-yloxy)-1-pyrrolidinyl]phenyl]-1,1,1-trifluoromethanesulfonamide]",134 to 137,50,70,85,70,70,50,90,80,100,,,,,,,,,,
"Cc1cc(C)c(N2CCC(OC3CC3)C2=O)cc1NS(=O)(=O)C(F)(F)F (stereo not drawn) [Compound 3, N-[5-[3-(cyclopropyloxy)-2-oxo-1-pyrrolidinyl]-2,4-dimethylphenyl]-1,1,1-trifluoromethanesulfonamide]",171 to 174,80,90,98,80,80,100,100,70,100,40,60,90,90,30,80,80,90,60,70
"Cc1cc(C)c(N2CCC(OC3CCC3)C2=O)cc1NS(=O)(=O)C(F)(F)F (stereo not drawn) [Compound 4, N-[5-[3-(cyclobutyloxy)-2-oxo-1-pyrrolidinyl]-2,4-dimethylphenyl]-1,1,1-trifluoromethanesulfonamide]",166 to 169,70,90,100,50,50,70,100,100,100,60,90,40,90,70,100,70,90,50,70
"Cc1cc(C)c(N(COC(=O)C(C)(C)C)S(=O)(=O)C(F)(F)F)cc1N1CCC(OC2CCCC2)C1=O (stereo not drawn) [Compound 5, [[5-[3-(cyclopentyloxy)-2-oxo-1-pyrrolidinyl]-2,4-dimethylphenyl][(trifluoromethyl)sulfonyl]amino]methyl 2,2-dimethylpropanoate]",,60,80,85,0,50,0,60,60,90,20,70,0,20,0,20,50,90,60,70
"Cc1cc(C)c(N2CCC(OC3CCCC3)C2=O)cc1NS(=O)(=O)C(F)(F)F (stereo not drawn) [Compound 6, N-[5-[3-(cyclopentyloxy)-2-oxo-1-pyrrolidinyl]-2,4-dimethylphenyl]-1,1,1-trifluoromethanesulfonamide]",,60,90,75,60,60,30,90,80,90,50,60,30,80,50,90,80,90,70,70
"Cc1cc(C)c(N(COC(=O)C(C)(C)C)S(=O)(=O)C(F)(F)F)cc1N1CCC(OC2CC2)C1=O (stereo not drawn) [Compound 7, [[5-[3-(cyclopropyloxy)-2-oxo-1-pyrrolidinyl]-2,4-dimethylphenyl][(trifluoromethyl)sulfonyl]amino]methyl 2,2-dimethylpropanoate]",,90,90,90,30,60,60,100,90,100,30,60,0,50,20,40,90,90,90,90
"Cc1cc(C)c(N(COC(=O)C(C)(C)C)S(=O)(=O)C(F)(F)F)cc1N1CCC(OC2CCC2)C1=O (stereo not drawn) [Compound 8, [[5-[3-(cyclobutyloxy)-2-oxo-1-pyrrolidinyl]-2,4-dimethylphenyl][(trifluoromethyl)sulfonyl]amino]methyl 2,2-dimethylpropanoate]",,70,90,95,60,70,0,100,100,100,60,90,0,10,40,50,80,90,60,90
"Cc1cc(C)c(N2CC/C(=N\O)C2=O)cc1NS(=O)(=O)C(F)(F)F [Compound 10, 1,1,1-trifluoro-N-[5-[3-(hydroxyimino)-2-oxo-1-pyrrolidinyl]-2,4-dimethylphenyl]methanesulfonamide]",213 to 216,,,,,,,,,,,,,,,,,,,
"C#CCO/N=C1\CCN(c2cc(NS(=O)(=O)C(F)(F)F)c(C)cc2C)C1=O [Compound 13, N-[2,4-dimethyl-5-[2-oxo-3-[(2-propyn-1-yloxy)imino]-1-pyrrolidinyl]phenyl]-1,1,1-trifluoromethanesulfonamide]",175 to 178,,,,,,,,,,,,,,,,,,,
